The record followed here is PMC8068288, “Novel Thiol Containing Hybrid Antioxidant-Nitric Oxide Donor Small Molecules for Treatment of Glaucoma” (Antioxidants, 2021).

Experiment [1] can be described thus: Superoxide anion radical scavenging assay (pyrogallol/WST-1) in buffer. It counts as biochemical. The protocol: The ROS scavenging ratio was determined using a chemical assay where WST-1 was used as superoxide scavenger produced by pyrogallol following a reported protocol. Briefly, the superoxide anion radical scavenging activity was determined spectrophotometrically by measuring the formation of WST-1 formazan at 450 nm. WST-1 (40 µL, 50 µM) was added to the compounds (or corresponding solution) in a final volume of 160 µL in 50 mM ammonium hydrogen carbonate buffer, 0.5 mM EDTA, pH 9.3. Reaction was launched by adding 40 µL 1 mM pyrogallol. The operation was based on the 96-well microplate, and measurement was performed at different time points under 37 °C by Cytation5 Microplate Reader. Baicalein (1 mM) was used as positive control. Compounds SA-2, SA-9, and SA-10 were used in concentrations ranging from 1 µM, 10 µM, 100 µM, and 1000 µM. The superoxide anion radical scavenging ratio % was calculated according to the following formula:Scavenging ratio (%) = A0 − (A1 − A2)/A0 × 100%
For orientation: Tetrazolium dyes change colour on reduction, which living cells bring about.

The subject of the next experiment is NTM-5 cells. Description: Total nitrite release by Griess assay in NTM-5 cell supernatant. It counts as cell-based, human. On the procedure: The total nitrite released from the compounds in buffer and in cell supernatant were measured by Griess assay as reported by us previously. In brief, compounds (SA-2, SA-9, and SA-10) in buffer at different concentrations (1 mM, 500 µM, 250 µM 125 µM, 62.5 µM, 31.25 µM, and 15.625 µM) or supernatant collected from Human transformed trabecular meshwork (NTM-5) cells were added to a 96-well plate. 1% Sulphanilamide in 5% phosphoric acid and 0.1% N-1-napthylethylenediamine dihydrochloride (NED) were added to experimental samples sequentially at room temperature and away from light. SIN-1 was used as reference standard. UV Absorbances (Cytation 5) were measured at specific timepoints (0, 5 min, 10 min, 15 min, 30 min, 24 h, and 28 h) at 520 nm.
The experiments were repeated twice with four technical replicates.
(Nitrite, measured by Griess reagent, commonly stands in for NO production.)

Consider `Cl.[NH-]c1c[n+](C2CCSCC2)no1` [SA-9, (3-(tetrahydro-2H-thiopyran-4-yl)-1,2,3-oxadiazol-3-ium-5-yl)amide hydrochloride], for which the “AUC0–2.5 h of % superoxide scavenging response” value in experiment [1] (1 mM compound, pyrogallol 1 mM, buffer) came out at 1355 ± 42.62. Also, the “earliest time of superoxide (O2−) radical scavenging” value in experiment [1] (buffer solution and TM cells) is given as 7 min. The superoxide radicals scavenged in experiment [1] (buffer, dose response 1-1000 µM) is recorded as 16–40%. In experiment [1] (different concentrations 1-1000 µM, 15 minutes time point, buffer), the “AUC0-15 of % superoxide scavenging response” value came out at 5972± 834.9. For the same compound, the “NO released in NTM-5 cell supernatants” value in the experiment on NTM-5 cells (28 h at 37 °C) is listed as “dose dependently”. In addition, the “start of NO release” value in the experiment on NTM-5 cells (buffer solution and TM cells) was above 24 h.
